Data reported in ChEMBL document CHEMBL4229419, “Phosphorus-containing isothiocyanate-derived mercapturic acids as a useful alternative for parental isothiocyanates in experimental oncology” (Bioorg Med Chem Lett, 2018).
Calls of active or inactive are those of the source. No cut-off for these calls is given here.

Assays:
[1] = system: LoVo; assay: Antiproliferative activity against human LoVo cells after 72 hrs by SRB assay; format: functional, cell-based
[2] = Antiproliferative activity against human LoVo/DX cells after 72 hrs by SRB assay; format: functional, cell-based
[3] = system: HL60/MX2; assay: Antiproliferative activity against human HL60/MX2 cells after 72 hrs by SRB assay; format: functional, cell-based; conditions: HL60/MX2, 72 h
[4] = system: MES-SA/Dx5; assay: Antiproliferative activity against human MES-SA/Dx5 cells after 72 hrs by SRB assay; format: functional, cell-based; conditions: MES-SA/Dx5, 72 h
[5] = Resistance index, ratio of IC50 for antiproliferative activity against human HL60/MX2 cells to IC50 for antiproliferative activity against human HL60 cells; format: functional
[6] = system: MES-SA; assay: Antiproliferative activity against human MES-SA cells after 72 hrs by SRB assay; format: functional, cell-based
[7] = system: 4T1; assay: Antiproliferative activity against mouse 4T1 cells after 72 hrs by MTT assay; format: functional, cell-based; conditions: 4T1, 72 h
[8] = system: HL-60; assay: Antiproliferative activity against human HL60 cells after 72 hrs by SRB assay; format: functional, cell-based; conditions: HL-60, 72 h
[9] = system: BALB/3T3; assay: Antiproliferative activity against mouse BALB/3T3 cells after 72 hrs by MTT assay; format: cell-based; conditions: BALB/3T3, 72 h
[10] = system: LoVo; assay: Cell cycle arrest in human LoVo cells assessed as accumulation at G2/M phase at 15 uM after 24 hrs by propidium iodide staining based flow cytometry (reference value: 21%); format: functional
[11] = system: LoVo; assay: Induction of apoptosis in human LoVo cells assessed as caspase-3 activation at 15 uM after 24 hrs by Ac-DEVD-ACC substrate based fluorescence assay relative to control; format: functional

| IC50 [1] [µM] | Structure (SMILES) | IC50 [2] [µM] | also measured |
| --- | --- | --- | --- |
| 2.2 | CCOP(=O)(CCCNC(=S)SC[C@H](NC(C)=O)C(=O)O)c1ccccc1 (some centres not stated) | 3.4 |  |
| 19.3 | CC(=O)N[C@@H](CSC(=S)NCCCP(=O)(OCC(C)C)OCC(C)C)C(=O)O | 17.9 |  |
| 2.1 | CC(=O)N[C@@H](CSC(=S)NCCCCCCP(=O)(c1ccccc1)c1ccccc1)C(=O)O | 8.1 |  |
| 1.8 | CC(=O)N[C@@H](CSC(=S)NCCCCCCP(=O)(OC(C)C)OC(C)C)C(=O)O | 3.4 | IC50 [3]: 3 µM; IC50 [4]: 10.3 µM; Ratio IC50 [5]: 5; IC50 [6]: 9.9 µM; IC50 [7]: 2.5 µM; IC50 [8]: 0.6 µM; IC50 [9]: 10.9 µM; Activity [10]: 24%; fold change (FC) [11]: 2.2 |
| 11.1 | CC(=O)N[C@@H](CSC(=S)NCCCCCCP(=O)(OCC(C)C)OCC(C)C)C(=O)O | 10.9 |  |
| 3.1 | CC(=O)N[C@@H](CSC(=S)NCCCP(=O)(OC(C)C)OC(C)C)C(=O)O | 8.5 |  |
| 2.2 | O=P(CCCCCCN=C=S)(c1ccccc1)c1ccccc1 | 3.1 |  |
| 2.6 | CC(=O)N[C@@H](CSC(=S)NCCCCCP(=O)(OCC(C)C)OCC(C)C)C(=O)O | 8.8 |  |
| 2.4 | CC(=O)N[C@@H](CSC(=S)NCCCCCP(=O)(OC(C)C)OC(C)C)C(=O)O | 3.4 |  |
| 3.3 | CCOP(=O)(CCCCNC(=S)SC[C@H](NC(C)=O)C(=O)O)OCC | 10 |  |
| 1.5 | CCOP(=O)(CCCCCCNC(=S)SC[C@H](NC(C)=O)C(=O)O)c1ccccc1 (some centres not stated) | 2.2 | IC50 [3]: 0.7 µM; IC50 [4]: 2.6 µM; IC50 [6]: 2.8 µM; IC50 [7]: 1.9 µM; IC50 [8]: 0.4 µM; IC50 [9]: 7.9 µM; Activity [10]: 22%; fold change (FC) [11]: 2.8 |
| 5 | CC(=O)N[C@@H](CSC(=S)NCCP(=O)(OC(C)C)OC(C)C)C(=O)O | 8.1 |  |
| 2.3 | CCOP(=O)(CCCCCCN=C=S)c1ccccc1 (configuration not stated) | 4 |  |
| 20.5 | CC(=O)N[C@@H](CSC(=S)NCCCC[S+](C)[O-])C(=O)O (some centres not stated) | 14 | Activity [11]: Active |
| 3.1 | CCOC(OCC)P(=O)(CCCCCCNC(=S)SC[C@H](NC(C)=O)C(=O)O)OCC (some centres not stated) | 10.4 |  |
| 4.6 | CC(=O)N[C@@H](CSC(=S)NCCCP(=O)(c1ccccc1)c1ccccc1)C(=O)O | 5.6 |  |
| 2 | CC(=O)N[C@@H](CSC(=S)NCCP(=O)(c1ccccc1)c1ccccc1)C(=O)O | 7.7 |  |
| 3.1 | COP(=O)(CCCCN=C=S)c1ccccc1 (configuration not stated) | 2.3 |  |
| 2.2 | CC(=O)N[C@@H](CSC(=S)NCCP(=O)(OCC(C)C)OCC(C)C)C(=O)O | 3.9 |  |
| 2.5 | CCOP(=O)(CCCCNC(=S)SC[C@H](NC(C)=O)C(=O)O)c1ccccc1 (some centres not stated) | 3.5 |  |
| 2 | CCOP(=O)(CCCCCNC(=S)SC[C@H](NC(C)=O)C(=O)O)c1ccccc1 (some centres not stated) | 3.3 |  |
| 2.2 | CCOP(=O)(CCCCCCNC(=S)SC[C@H](NC(C)=O)C(=O)O)OCC | 2.6 |  |

| IC50 [1] [µM] | Structure (SMILES) | IC50 [2] [µM] | also measured |
| --- | --- | --- | --- |
| 2.7 | COP(=O)(CCCCNC(=S)SC[C@H](NC(C)=O)C(=O)O)c1ccccc1 (some centres not stated) | 2.9 |  |
| 7 | CCOC(OCC)P(=O)(CCCCN=C=S)OCC (configuration not stated) | 11.2 |  |
| 1.8 | COP(=O)(CCCCCCN=C=S)c1ccccc1 (configuration not stated) | 2.3 |  |
| 2.2 | CCOP(=O)(CCCNC(=S)SC[C@H](NC(C)=O)C(=O)O)OCC | 2.5 |  |
| 2.5 | CCOP(=O)(CCCCN=C=S)c1ccccc1 (configuration not stated) | 4.1 |  |
| 5.1 | CCOC(OCC)P(=O)(CCCCCCN=C=S)OCC (configuration not stated) | 10.6 |  |
|  | COc1cccc2c1C(=O)c1c(O)c3c(c(O)c1C2=O)C[C@@](O)(C(=O)CO)C[C@@H]3O[C@H]1C[C@H](N)[C@H](O)[C@H](C)O1 [DOXORUBICIN] |  | IC50 [4]: 16.2 µM; IC50 [6]: 0.16 µM |
| 1.5 | CC(=O)N[C@@H](CSC(=S)NCCCCCP(=O)(c1ccccc1)c1ccccc1)C(=O)O | 4.3 |  |
| 3 | CC(=O)N[C@@H](CSC(=S)NCCCCP(=O)(OCC(C)C)OCC(C)C)C(=O)O | 9 |  |
| 2.2 | O=P(CCCCN=C=S)(c1ccccc1)c1ccccc1 | 2.2 |  |
| 2.5 | COP(=O)(CCCCCNC(=S)SC[C@H](NC(C)=O)C(=O)O)c1ccccc1 (some centres not stated) | 2.6 |  |
| 2 | O=P(CCN=C=S)(c1ccccc1)c1ccccc1 | 2.2 |  |
| 6.4 | CCOC(OCC)P(=O)(CCCCNC(=S)SC[C@H](NC(C)=O)C(=O)O)OCC (some centres not stated) | 11.3 |  |
| 2.6 | CC(=O)N[C@@H](CSC(=S)NCCCCP(=O)(OC(C)C)OC(C)C)C(=O)O | 8.9 |  |
| 201 | CCCCNC(=S)SC[C@H](NC(C)=O)C(=O)O | 224 |  |
| 3 | CCOC(OCC)P(=O)(CCCCCNC(=S)SC[C@H](NC(C)=O)C(=O)O)OCC (some centres not stated) | 8.4 |  |
| 11.5 | CC(=O)N[C@@H](CSC(=S)NCc1ccccc1)C(=O)O | 15.4 | Activity [10]: 49%; fold change (FC) [11]: >10 |
| 2.1 | COP(=O)(CCCCCCNC(=S)SC[C@H](NC(C)=O)C(=O)O)c1ccccc1 (some centres not stated) | 2.8 |  |
|  | O=C1c2c(O)ccc(O)c2C(=O)c2c(NCCNCCO)ccc(NCCNCCO)c21 [MITOXANTRONE] |  | Ratio IC50 [5]: 37 |
| 4.4 | CC(=O)N[C@@H](CSC(=S)NCCCCP(=O)(c1ccccc1)c1ccccc1)C(=O)O | 8.1 |  |
| 2.2 | CCOP(=O)(CCCCCNC(=S)SC[C@H](NC(C)=O)C(=O)O)OCC | 4 |  |
| 2.2 | CCOP(=O)(CCNC(=S)SC[C@H](NC(C)=O)C(=O)O)OCC | 8 |  |

| Structure (SMILES) | IC50 [1] [µM] | IC50 [2] [µM] | also measured |
| --- | --- | --- | --- |
| CC(=O)N[C@@H](CSC(=S)NCCCP(=O)(Oc1ccccc1)Oc1ccccc1)C(=O)O | 2 | 7.6 |  |
| CC(=O)N[C@@H](CSC(=S)NCCP(=O)(Oc1ccccc1)Oc1ccccc1)C(=O)O | 3.5 | 9 |  |
| CC(=O)N[C@@H](CSC(=S)NCCCCCP(=O)(Oc1ccccc1)Oc1ccccc1)C(=O)O | 1.9 | 8 |  |
| CC(=O)N[C@@H](CSC(=S)NCCCCP(=O)(Oc1ccccc1)Oc1ccccc1)C(=O)O | 2.2 | 7.9 |  |
| CC(=O)N[C@@H](CSC(=S)NCCCCCCP(=O)(Oc1ccccc1)Oc1ccccc1)C(=O)O | 2.5 | 11.3 |  |
